Measurements published in PubChem BioAssay AID248 (DTP/NCI, 2004).
Inconclusive results and toxic doses are left out. No stated cut-off is given here; in the data, active means T/C of 150% or more; inactive means T/C below 125%.

Tested on: L1210 leukemia ip in BDF1 mice, survival T/C
Assay: NCI In Vivo Anticancer Drug Screen. Data for tumor model L1210 Leukemia (intraperitoneal) in B6D2F1 (BDF1) mice
Conditions: endpoint: mean survival time, higher = longer survival
How it was run: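 Survival endpoint. Drug-treated group vs vehicle group, expressed as T divided by C. Tumor passaged by transplantation.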

Measured: T/C

COC(C)CCC(=O)O.[Ag] (centres undefined)
inactive: dose: 6.25 mg/kg/injection, schedule: Q01DX009 (ip), vehicle: saline with Tween-80 95 % of control | dose: 12.5 mg/kg/injection, schedule: Q01DX009 (ip), vehicle: saline with Tween-80 91 % of control | dose: 12.5 mg/kg/injection, schedule: Q04DX003 (ip), vehicle: saline with Tween-80 91 % of control | dose: 25.0 mg/kg/injection, schedule: Q01DX009 (ip), vehicle: saline with Tween-80 95 % of control | dose: 25.0 mg/kg/injection, schedule: Q04DX003 (ip), vehicle: saline with Tween-80 96 % of control

COc1ccc2c(c1OC)-c1c3c(cc4c1C(C2)N(C)CC4)OCO3 (centres undefined)
inactive: dose: 100.0 mg/kg/injection, schedule: Q01DX001 (ip), vehicle: saline 98 % of control | dose: 200.0 mg/kg/injection, schedule: Q01DX001 (ip), vehicle: saline 101 % of control | dose: 400.0 mg/kg/injection, schedule: Q01DX001 (ip), vehicle: saline 96 % of control

N#CCc1c(Cl)sc(Cl)c1CC#N
inactive: dose: 100.0 mg/kg/injection, schedule: Q04DX003 (ip), vehicle: saline with Tween-80 88 % of control | dose: 200.0 mg/kg/injection, schedule: Q04DX003 (ip), vehicle: saline with Tween-80 88 % of control

O=C(C1CC2CCC1C2)C1CC2CCC1C2 (centres undefined)
inactive: dose: 100.0 mg/kg/injection, schedule: Q01DX009 (ip), vehicle: saline with Tween-80 98 % of control | dose: 100.0 mg/kg/injection, schedule: Q04DX003 (ip), vehicle: Klucel (hydroxypropylcellulose) (HPC) 97 % of control | dose: 200.0 mg/kg/injection, schedule: Q01DX009 (ip), vehicle: saline with Tween-80 95 % of control | dose: 200.0 mg/kg/injection, schedule: Q04DX003 (ip), vehicle: Klucel (hydroxypropylcellulose) (HPC) 100 % of control | dose: 400.0 mg/kg/injection, schedule: Q01DX009 (ip), vehicle: saline with Tween-80 96 % of control | dose: 400.0 mg/kg/injection, schedule: Q04DX003 (ip), vehicle: Klucel (hydroxypropylcellulose) (HPC) 100 % of control

CCCNC(=O)Nc1cccc(Cl)c1
inactive: dose: 100.0 mg/kg/injection, schedule: Q01DX001 (ip), vehicle: carboxymethylcellulose (CMC) 102 % of control | dose: 200.0 mg/kg/injection, schedule: Q01DX001 (ip), vehicle: carboxymethylcellulose (CMC) 109 % of control | dose: 400.0 mg/kg/injection, schedule: Q01DX001 (ip), vehicle: carboxymethylcellulose (CMC) 105 % of control
